In patent US12195748B2, “Delivery across cell plasma membranes” (Avectas Limited, priority 2014, dated 2025):
“Also recorded” adds a separate entry of the source.

Legend:
[1] = tested on: Jurkat cells; assay: Spray delivery into Jurkat suspension cells; assay type: cell-based; conditions: spray after removal of supernatant
Protocol: In this example, the delivery method across cell types was evaluated. […] The cell suspension was placed into a porous cell culture plate insert and a brief gentle vacuum of approximately −0.5 to −0.68 bar was applied for 20-45 sec to remove supernatant before the cells were sprayed (FIG. 41A and FIG. 42).

[2] = tested on: A549 cells; assay: Spray-mediated delivery of payloads to A549 cells (fluorescence microscopy, flow cytometry); assay type: cell-based, human
Protocol: Each well of the plate was treated as follows: cell culture medium was removed from the well using a micropipette. Optionally, the well was rinsed twice with 250 μL phosphate buffered saline (PBS) using a micropipette. 20 μL of Solution A containing molecules to be delivered was delivered to the cells using the atomizer. The plate was incubated at room temperature for a period of 30 seconds to 2 minutes depending on the size of the molecule to be delivered, following which 250 μL of Solution B was added to the well using a micropipette. The plate was then incubated at room temperature for 30 seconds, at which time Solution B was removed from the well using a micropipette. 500 μL of culture medium was added to the well using a micropipette. The cells were then returned to a humidified atmosphere with 5% CO^2 at 37° C.
Fluorescence Microscopy. Fluorescein isothiocyanate (FITC)- and DyLight Phosphoramidite (DY547)-labelled molecules were used in accordance with the manufacturer's instructions. Labelled molecules to be delivered to the cells were added to Solution A and delivered to cells as described above herein. Following delivery, the plate was placed onto the stage of a fluorescent microscope (Olympus CKX 41) and the cells were viewed using filters to visualize fluorescence. Photomicrographs were acquired.
Flow Cytometry. […] The cell suspension was loaded into a flow cytometer [Accuri Flow Cytometyer, BD Biosciences] and the fluorescence was analyzed according to manufacturer's instruction. […]

[3] = tested on: cells; assay: Delivery of molecules to cells, spray apparatus versus micropipette (Examples 2-12); assay type: cell-based
Excerpt: Delivery of Molecules. An intranasal mucosal atomization device commercially available from LMA Teleflex of NC, USA under catalogue number MAD300 and including an atomizer emitter was set up as follows: the atomizer emitter was positioned 31 mm from the base of the 24-well plate and above the center point of each circular well of the plate. The atomizer emitter was adjusted to allow a pressure of 1.5 bar. A timer was utilized to dispense spray from the atomizer emitter for a period of 1 second. The atomizer emitter was primed by rinsing three times with Solution A containing molecules to be delivered.
Each well of the plate was treated as follows: cell culture medium was removed from the well using a micropipette. Optionally, the well was rinsed twice with 250 μL phosphate buffered saline (PBS) using a micropipette. 20 μL of Solution A containing molecules to be delivered was delivered to the cells using the atomizer. The plate was incubated at room temperature for a period of 30 seconds to 2 minutes depending on the size of the molecule to be delivered, following which 250 μL of Solution B was added to the well using a micropipette. The plate was then incubated at room temperature for 30 seconds, at which time Solution B was removed from the well using a micropipette. 500 μL of culture medium was added to the well using a micropipette. […]
Fluorescence Microscopy. […] Following delivery, the plate was placed onto the stage of a fluorescent microscope (Olympus CKX 41) and the cells were viewed using filters to visualize fluorescence. […]
Flow Cytometry. […] The cell suspension was loaded into a flow cytometer [Accuri Flow Cytometyer, BD Biosciences] and the fluorescence was analyzed according to manufacturer's instruction.
Cell Viability. Following delivery, cell viability was assessed using the CellTiter 96® AQueous One Solution Cell Proliferation Assay (MTS) (Promega) according to the manufacturer's instructions. […] 100 μL of solution was removed from the well and placed into a 96-well plate and absorbance was read at 450 nm using a GloMax 96 Microplate luminometer [Promega].

[4] = tested on: A549 cells; assay: Micropipette-mediated delivery of payloads to A549 cells (uptake); assay type: cell-based, human; conditions: 24-well plates
Protocol: FIG. 19 is a graph illustrating Micropipette-mediated delivery of payloads in either 200 μl or 20 μl delivery solution to A549 cells in 24-well plates. Uptake efficiency was measured by flow cytometry (5% m bar) and toxicity was measured by lactate dehydrogenase (LDH) release compared to lysed cells positive control.
Cells were seeded into 24-well plates on Day 0 such that they were 80-90% confluent on Day 1 when delivery was carried out. […] Cells were incubated for 2 min at room temperature (RT) to facilitate uptake. To further facilitate uptake and prevent cell dehydration, 200 μl 0.5×-PBS was then added and cells were incubated for a further 30 sec. This solution was then removed and 400 μl culture medium was added. The cells were then analyzed by fluorescence microscopy.

[5] = tested on: A549 cells; assay: Incubation of A549 cells in S Buffer (Medepalli conditions); assay type: cell-based, human; conditions: 5 min at 4° C.
Excerpt: A vector-free delivery method was developed based on reversible permeabilisation that would facilitate delivery of payloads into cells in a manner that would retain cell viability and payload functionality. As other groups have done, the following hypothesis was utilized: firstly, permeabilisation could be induced by chemical modification of the cell membrane; secondly, delivery could be enhanced via osmotic pressure brought about by using a hypotonic delivery solution whereby influx of water into the permeabilised cells facilitated influx of a payload and thirdly, cell survival could be enhanced if the hypotonic delivery solution was also buffered and physiological. Based on initial observations, further hypotheses were developed and refined as described later here. For chemical permeabilisation, the most common permeabilising agents are detergents which interact with certain components in cell membranes to create holes (Hapala, I., Crit Rev. Biotech. 1997; 17(2): 105-22). […] (Medepalli K. et al., Nanotechnology 2013; 24(20)). In some examples, potassium acetate is replaced with ammonium acetate in the “S” buffer. They also stated that delivery could be enhanced by adding saponin to the solution. […] Organic solvents such as alcohols can permeabilise cells by dissolving lipid from the cell membrane. […]

[6] = tested on: CHO cells; assay: Spray delivery of labelled proteins into CHO cells; assay type: cell-based, Chinese hamster; conditions: for delivery of labelled protein into cells: FITC or Alexa-488 label
Excerpt: A notable application of delivery technology is the intracellular delivery of proteins. Proteins are a very diverse group in terms of their size, shape and chemistry and few methods are currently available for efficient delivery of these molecules. A broad range of proteins of increasing sizes from 18.3 kDa to 443 kDa were labeled with either FITC or Alexa-488 and their delivery by spraying was examined. […] A general trend towards declining delivery efficiencies with increasing size of protein (FIG. 44) was observed.

[7] = DAPI, phallotoxin and MitoTracker Red together

N=C(N)c1ccc(-c2cc3ccc(C(=N)N)cc3[nH]2)cc1 [DAPI, 4′,6-diamidino-2-phenylindole] was tested, and the “delivery to suspension cells” value [1] was “successfully delivered”, the co-delivery into cells ([2]; 10-kDa dextran-Alexa488 and DAPI together) was “successfully co-delivered” and the co-delivery into cells [2, 7] was “successfully co-delivered”.

ClCc1ccc(C2=c3cc4c5c(c3Oc3c2cc2c6c3CCCN6CCC2)CCC[N+]=5CCC4)cc1.[Cl-] [MitoTracker Red] was tested, and the “delivery to suspension cells” value [1] was “successfully delivered” and the co-delivery into cells [2, 7] was “successfully co-delivered”.

CC[N+](C)(CC)CCC[n+]1c(-c2ccccc2)c2cc(N)ccc2c2ccc(N)cc21.[I-].[I-] [PI, propidium iodide] was tested, and the “delivery rate (percent of cells showing successful delivery), spray compared to micropipette” value ([3]; Example 3, 150 μM, 20 or 40% ethanol) was “increases the delivery rate”, the “delivery in viable cells” value ([3]; Example 3, micropipette, 40% (v/v) ethanol) was “no delivery of molecules was detected in viable cells” and the “simultaneous delivery of two molecules into the cell” value ([3]; Example 4, spray, 25% ethanol, same matrix) was “results in delivery of the molecule into the cell”. The “uptake viewed by fluorescent microscopy” value ([4]; 20 μL delivery solution) was “apparent at the edge of the well but not in the center; also recorded: apparent in some areas of the well but not in others”, the “uptake viewed by fluorescent microscopy” value ([4]; 200 μL delivery solution) was “most cells immediately stained positive” and the “uptake viewed by fluorescent microscopy” value ([4]; 200 μL delivery solution, listed as Propidium iodide) was “uptake was visible throughout the cell population”.

For dextran, the uptake [5] was “did not observe uptake”.

For “ovalbumin: protein labelled with FITC and delivered into CHO cells”, the “delivery of labelled protein into cells” value [6] was “successfully delivered” and the “detection of delivered protein with anti-ovalbumin antibody” value ([6]; immunofluorescence) was “detected by immunofluorescence”.

B1: catalase: protein labelled with FITC and delivered into CHO cells (protein, UniProt P00432 2-527, looked up)
Catalase: ADNRDPASDQMKHWKEQRAAQKPDVLTTGGGNPVGDKLNSLTVGPRGPLLVQDVVFTDEMAHFDRERIPERVVHAKGAGAFGYFEVTHDITRYSKAKVFEHIGKRTPIAVRFSTVAGESGSADTVRDPRGFAVKFYTEDGNWDLVGNNTPIFFIRDALLFPSFIHSQKRNPQTHLKDPDMVWDFWSLRPESLHQVSFLFSDRGIPDGHRHMNGYGSHTFKLVNANGEAVYCKFHYKTDQGIKNLSVEDAARLAHEDPDYGLRDLFNAIATGNYPSWTLYIQVMTFSEAEIFPFNPFDLTKVWPHGDYPLIPVGKLVLNRNPVNYFAEVEQLAFDPSNMPPGIEPSPDKMLQGRLFAYPDTHRHRLGPNYLQIPVNCPYRARVANYQRDGPMCMMDNQGGAPNYYPNSFSAPEHQPSALEHRTHFSGDVQRFNSANDDNVTQVRTFYLKVLNEEQRKRLCENIAGHLKDAQLFIQKKAVKNFSDVHPEYGSRIQALLDKYNEEKPKNAVHTYVQHGSHLSAREKANL
modifications: FITC label
notes: protein labelled with FITC and delivered into CHO cells
With B1 the “delivery of labelled protein into cells” value [6] was “successfully delivered”.
